Experimental data: ChEMBL document CHEMBL1141099, “Discovery of N-(2,6-dimethylphenyl)-substituted semicarbazones as anticonvulsants: hybrid pharmacophore-based design” (2005)

Tests used:
[1] = species: Rattus norvegicus; assay: Ex vitro percentage inhibition activity against GABA-T enzyme at a concentration of 1.25 uM after 3 h; format: functional
[2] = test system: Rattus norvegicus; assay: Effect on GABA level in rat whole brain concentration after 2 hr post-treatment at a dose of 100 mg/Kg when given i.p.; Control 48.4; format: functional
[3] = test system: Rattus norvegicus; assay: Number of rats protected at a dose of 30 mg/Kg when given oral at 0.5 hr upon maximal electroshock seizure; Total number of rats = 4; format: functional
[4] = species: Rattus norvegicus; assay: Ex vitro percentage inhibition activity against GABA-T enzyme at a concentration of 1.25 uM after 4.5 h; format: functional
[5] = test system: Rattus norvegicus; assay: Number of rats protected at a dose of 30 mg/Kg when given oral at 1 hr upon maximal electroshock seizure; Total number of rats = 4; format: functional
[6] = species: Rattus norvegicus; assay: Ex vitro percentage inhibition activity against GABA-T enzyme at a concentration of 1.25 uM after 6 h; format: functional
[7] = species: Rattus norvegicus; assay: Protective index between effective dose and toxic dose in rat; format: functional
[8] = test system: Mus musculus; assay: Post treatment activity score for CNS study using a actophotometer at a dose of 100 mg/Kg after 0.5 hr when given i.p., in mice (No. of animals 6); Control (24h before) 268
[9] = test system: Rattus norvegicus; assay: Enzymatic activity to assess the increase in level of SGPT at a dose of 30 mg/Kg for 14 days when given p.o., in 6 rats; Control 45.0; format: functional
[10] = test system: Rattus norvegicus; assay: Number of rats protected at a dose of 30 mg/Kg when given oral at 4 hr upon maximal electroshock seizure; Total number of rats = 4; format: functional
[11] = test system: Mus musculus; assay: Post treatment immobility time for CNS study using Porsolt's swimpool test at a dose of 100 mg/Kg after 1 hr when given i.p., in mice (No. of animals 6); Control (24h before) 146
[12] = test system: Mus musculus; assay: Minimum dose required for anticonvulsant activity when given i.p., at 0.5 hr in mice upon subcutaneous strychnine seizure; format: functional
[13] = test system: Mus musculus; assay: Minimum dose required for anticonvulsant activity when given i.p., at 4 hr in mice upon maximal electroshock seizure; format: functional
[14] = test system: Rattus norvegicus; assay: Number of rats protected at a dose of 30 mg/Kg when given oral at 2 hr upon maximal electroshock seizure; Total number of rats = 4; format: functional
[15] = test system: Mus musculus; assay: Minimum dose required for anticonvulsant activity when given i.p., at 0.5 hr in mice upon maximal electroshock seizure; format: functional
[16] = test system: Mus musculus; assay: Post treatment activity score for CNS study using a actophotometer at a dose of 100 mg/Kg after 1 hr when given i.p., in mice (No. of animals 6); Control (24h before) 268
[17] = target: 4-aminobutyrate aminotransferase, mitochondrial (Rattus norvegicus) (UniProt P50554); assay: In vitro percentage inhibition activity against GABA-T enzyme at a concentration of 5 uM after 4.5 h
Sequence of 4-aminobutyrate aminotransferase, mitochondrial (Rattus norvegicus) (P50554 28-500 limits assumed): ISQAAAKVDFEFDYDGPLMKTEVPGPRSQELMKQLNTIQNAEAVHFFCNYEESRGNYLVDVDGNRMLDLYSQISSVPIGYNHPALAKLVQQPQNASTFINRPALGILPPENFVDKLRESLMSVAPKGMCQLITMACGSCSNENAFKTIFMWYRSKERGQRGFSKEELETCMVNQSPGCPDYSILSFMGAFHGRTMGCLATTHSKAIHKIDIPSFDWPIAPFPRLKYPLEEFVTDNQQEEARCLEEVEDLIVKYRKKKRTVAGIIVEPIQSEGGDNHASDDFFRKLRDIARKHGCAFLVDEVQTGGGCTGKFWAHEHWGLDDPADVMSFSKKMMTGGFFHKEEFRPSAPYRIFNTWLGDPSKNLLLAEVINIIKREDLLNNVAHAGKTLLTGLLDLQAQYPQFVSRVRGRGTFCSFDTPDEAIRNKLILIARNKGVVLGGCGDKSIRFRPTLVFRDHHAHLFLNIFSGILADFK

[18] = target: 4-aminobutyrate aminotransferase, mitochondrial (Rattus norvegicus) (UniProt P50554); assay: In vitro percentage inhibition activity against GABA-T enzyme at a concentration of 5 uM after 3 h
[19] = target: 4-aminobutyrate aminotransferase, mitochondrial (Rattus norvegicus) (UniProt P50554); assay: In vitro percentage inhibition activity against GABA-T enzyme at a concentration of 5 uM after 6 h
[20] = test system: Rattus norvegicus; assay: Toxic dose observed for anticonvulsant activity when given orally at 2 hr in rat upon neurotoxicity seizure; format: functional; conditions: po
[21] = test system: Rattus norvegicus; assay: Enzymatic activity to assess the increase in level of SGOT at a dose of 30 mg/Kg for 14 days when given p.o., in 6 rats; Control 73.1; format: functional
[22] = test system: Mus musculus; assay: Minimum dose required for anticonvulsant activity when given i.p., at 2 hr in mice upon subcutaneous strychnine seizure; format: functional
[23] = test system: Rattus norvegicus; assay: Number of rats protected at a dose of 30 mg/Kg when given oral at 0.25 hr upon maximal electroshock seizure; Total number of rats = 4; format: functional
[24] = test system: Mus musculus; assay: Mean sleeping time evaluated for CNS study using the pentobarbital-induced narcosis model at a dose of 100 mg/Kg when given i.p., in mice (No. of animals 6)
[25] = test system: Rattus norvegicus; assay: Effective dose required for anticonvulsant activity when given orally at 2 h in rat upon maximal electroshock seizure; format: functional; conditions: po
[26] = test system: Mus musculus; assay: Minimum dose required for anticonvulsant activity when given i.p., at 0.5 hr in mice upon subcutaneous pentylenetetrazole seizure; format: functional
[27] = test system: Rattus norvegicus; assay: Effect on GABA level in rat whole brain concentration after 7 days post-treatment at a dose of 30 mg/Kg when given orally; Control 50.5; format: functional
[28] = test system: Rattus norvegicus; assay: After discharge duration time when before administered in rat 1 at dose 100 mg/Kg when given i.p., upon preliminary hippocampal-kindling screen; Prodrug time 26-42 s; format: functional, Hippocampus
[29] = test system: Rattus norvegicus; assay: After discharge duration time when after administered in rat 1 at dose 100 mg/Kg when given i.p., upon preliminary hippocampal-kindling screen; format: functional, Hippocampus
[30] = target: 4-aminobutyrate aminotransferase, mitochondrial (Rattus norvegicus) (UniProt P50554); assay: In vitro percentage inhibition activity against GABA-T enzyme at a concentration of 0.625 uM after 3 h
[31] = target: 4-aminobutyrate aminotransferase, mitochondrial (Rattus norvegicus) (UniProt P50554); assay: In vitro percentage inhibition activity against GABA-T enzyme at a concentration of 0.625 uM after 6 h
[32] = species: Rattus norvegicus; assay: Ex vitro percentage inhibition activity against GABA-T enzyme at a concentration of 5 uM after 4.5 h; format: functional
[33] = test system: Rattus norvegicus; assay: Toxic dose observed for anticonvulsant activity when given i.p., at 1 h in rat upon neurotoxicity seizure; format: functional; conditions: ip
[34] = species: Rattus norvegicus; assay: Ex vitro percentage inhibition activity against GABA-T enzyme at a concentration of 5 uM after 3 h; format: functional
[35] = test system: Rattus norvegicus; assay: Seizure score before administration in rat 1 at dose 100 mg/Kg when given i.p., upon preliminary hippocampal-kindling screen; format: functional, Hippocampus
[36] = species: Rattus norvegicus; assay: Ex vitro percentage inhibition activity against GABA-T enzyme at a concentration of 5 uM after 6 h; format: functional
[37] = test system: Rattus norvegicus; assay: Seizure score before administration in rat 2 at dose 100 mg/Kg when given i.p., upon preliminary hippocampal-kindling screen; […]; format: functional, Hippocampus
[38] = test system: Rattus norvegicus; assay: Seizure score after administration in rat 2 at dose 100 mg/Kg when given i.p., upon preliminary hippocampal-kindling screen; format: functional, Hippocampus
[39] = test system: Mus musculus; assay: Minimum dose required for anticonvulsant activity when given i.p., at 0.5 hr in mice upon neurotoxicity seizure using rotarod test; format: functional
[40] = test system: Rattus norvegicus; assay: After discharge duration time when before administered in rat 2 at dose 100 mg/Kg when given i.p., upon preliminary hippocampal-kindling screen; Prodrug time 11-39 s; format: functional, Hippocampus
[41] = test system: Mus musculus; assay: Post treatment activity score for CNS study using a actophotometer at a dose of 100 mg/Kg after 0.5 hr when given i.p., in mice (No. of animals 6); Control (24h before) 202
[42] = test system: Rattus norvegicus; assay: After discharge duration time when after administered in rat 2 at dose 100 mg/Kg when given i.p., upon preliminary hippocampal-kindling screen; format: functional, Hippocampus
[43] = test system: Mus musculus; assay: Post treatment activity score for CNS study using a actophotometer at a dose of 100 mg/Kg after 1 hr when given i.p., in mice (No. of animals 6); Control (24h before) 202
[44] = test system: Mus musculus; assay: Post treatment immobility time for CNS study using Porsolt's swimpool test at a dose of 100 mg/Kg after 1 hr when given i.p., in mice (No. of animals 6); Control (24h before) 173
[45] = test system: Rattus norvegicus; assay: Seizure score after administration in rat 1 at dose 100 mg/Kg when given i.p., upon preliminary hippocampal-kindling screen; format: functional, Hippocampus
[46] = test system: Rattus norvegicus; assay: Effective dose required for anticonvulsant activity when given i.p., at 1 hr in rat upon maximal electroshock seizure; format: functional; conditions: ip
[47] = target: 4-aminobutyrate aminotransferase, mitochondrial (Rattus norvegicus) (UniProt P50554); assay: In vitro percentage inhibition activity against GABA-T enzyme at a concentration of 0.625 uM after 4.5 h
[48] = species: Rattus norvegicus; assay: Ex vitro percentage inhibition activity against GABA-T enzyme at a concentration of 2.5 uM after 4.5 h; format: functional
[49] = species: Rattus norvegicus; assay: Ex vitro percentage inhibition activity against GABA-T enzyme at a concentration of 2.5 uM after 6 h; format: functional
[50] = test system: Mus musculus; assay: Post treatment immobility time for CNS study using Porsolt's swimpool test at a dose of 100 mg/Kg after 1 hr when given i.p., in mice (No. of animals 6); Control (24h before) 143
[51] = test system: Mus musculus; assay: Post treatment activity score for CNS study using a actophotometer at a dose of 100 mg/Kg after 1 h when given i.p., in mice (No. of animals 6); Control (24h before) 238
[52] = test system: Mus musculus; assay: Post treatment activity score for CNS study using a actophotometer at a dose of 100 mg/Kg after 0.5 hr when given i.p., in mice (No. of animals 6); Control (24h before) 238
[53] = species: Rattus norvegicus; assay: Ex vitro percentage inhibition activity against GABA-T enzyme at a concentration of 2.5 uM after 3 h; format: functional
[54] = test system: Rattus norvegicus; assay: Toxic dose observed for anticonvulsant activity when given i.p., at 2 hr in rat upon neurotoxicity seizure; format: functional; conditions: ip
[55] = test system: Mus musculus; assay: Post treatment activity score for CNS study using a actophotometer at a dose of 100 mg/Kg after 0.5 hr when given i.p., in mice (No. of animals 6); Control (24h before) 245
[56] = test system: Rattus norvegicus; assay: Effective dose required for anticonvulsant activity when given i.p., at 2 hr in rat upon maximal electroshock seizure; format: functional; conditions: ip
[57] = test system: Mus musculus; assay: Post treatment activity score for CNS study using a actophotometer at a dose of 100 mg/Kg after 1 hr when given i.p., in mice (No. of animals 6); Control (24h before) 245
[58] = test system: Mus musculus; assay: Post treatment immobility time for CNS study using Porsolt's swimpool test at a dose of 100 mg/Kg after 1 hr when given i.p., in mice (No. of animals 6); Control (24h before) 182

| SMILES | Inhibition [1] [%] | Activity [2] | Activity [3] | Inhibition [4] [%] | Activity [5] | Inhibition [6] [%] | PI [7] | Activity [10] | STY seizure [12] [mg/kg] | MES [13] [mg/kg] | Activity [14] | MES [15] [mg/kg] | inhibition [17] [%] | inhibition [18] [%] | inhibition [19] [%] | STY seizure [22] [mg/kg] | Activity [23] | Time [24] [min] | PTZ seizure [26] [mg/kg] | Activity [27] | also measured |
| --- | --- | --- | --- | --- | --- | --- | --- | --- | --- | --- | --- | --- | --- | --- | --- | --- | --- | --- | --- | --- | --- |
| Cc1ccc(/C=N/NC(=O)Nc2c(C)cccc2C)cc1 | 32 | 90.2 ug/100mg of tissue | 2 | 75 | 3 | 48 | >3.62 | 3 | 100 | 300 | 4 | 100 | 70 | 55 | 0 | 100 | 0 | 150 | 300 | 100 ug/100mg of tissue | Activity [8]: 175; SGPT activity [9]: 47.3 units/mL; Activity [11]: 225; Activity [16]: 133; TD50 [20]: > 120 mg/kg; SGOT activity [21]: 70.2 units/mL; ED50 [25]: 33.1 mg/kg |
| Cc1cccc(C)c1NC(=O)N/N=C/c1cccc([N+](=O)[O-])c1 |  | 79.8 ug/100mg of tissue | 1 |  | 3 |  | >4 | 3 | 30 | 300 | 1 | 100 |  |  |  | 100 | 1 | 147 | 300 | 87.9 ug/100mg of tissue | ADD [28]: 42 s; ADD [29]: 52 s; inhibition [30]: 88%; inhibition [31]: 0%; Inhibition [32]: 0%; TD50 [33]: > 120 mg/kg; Inhibition [34]: 0%; Score [35]: 5; Inhibition [36]: 0%; Score [37]: 4; Score [38]: 5; NT [39]: 300 mg/kg; ADD [40]: 39 s; Activity [41]: 129; ADD [42]: 59 s; Activity [43]: 131; Activity [44]: 231; Score [45]: 1; ED50 [46]: 29.7 mg/kg; inhibition [47]: 0% |
| COc1cc(/C=N/NC(=O)Nc2c(C)cccc2C)ccc1O |  | 91.2 ug/100mg of tissue | 3 |  | 4 |  | >4.4 | 4 | 30 | 300 | 3 | 100 | 56 | 0 | 23 | 100 | 3 | 68 | 300 | 106 ug/100mg of tissue | Inhibition [48]: 56%; TD50 [33]: > 117 mg/kg; Inhibition [49]: 12%; Activity [50]: 207; Activity [51]: 130; Activity [52]: 157; ED50 [46]: 26.2 mg/kg; Inhibition [53]: 0% |
| Cc1cccc(C)c1NC(=O)N/N=C/c1ccc(N(C)C)cc1 | 0 | 75.5 ug/100mg of tissue | 2 | 0 | 2 | 9 | >13.6 | 4 | 100 | 300 | 3 | 100 |  |  |  | 100 | 1 |  | 300 | 68.1 ug/100mg of tissue | inhibition [30]: 0%; inhibition [31]: 0%; TD50 [54]: > 250 mg/kg; Activity [55]: 147; NT [39]: 300 mg/kg; ED50 [56]: 18.3 mg/kg; Activity [57]: 124; Activity [58]: 207; inhibition [47]: 64% |
